The values that follow come from paper doi:10.1101/2020.01.20.912972v1 (biorxiv, 2020).

The target of assay [1] is TrpR (tryptophan repressor; TrpR-Wt) (Escherichia coli, UniProt P0A881). Kind of assay: isothermal titration calorimetry. The assay is classed as binding. (In general: ITC needs no label: the signal is the heat of the interaction.)
Assay [2] deals with TrpR (tryptophan repressor; TrpR-Wt) (Escherichia coli, UniProt P0A881, S88Y). Kind of assay: isothermal titration calorimetry. Format: binding.

Turning to `Cc1ccc2[nH]cc(CC(N)C(=O)O)c2c1` (racemic) [5-Met-TRP, 5-Methyl-DL-Tryptophan], the dissociation constant (Kd) – broadly, the equilibrium constant for the complex coming apart – in assay [1] is 62.2 ± 15.6 µM.
Turning to `O=C(O)Cc1c[nH]c2ccccc12` [IAA, Indole-3-acetic acid], the Kd was found to be 29.3 ± 2.08 µM in assay [2] and 162 ± 14 µM in assay [1].
The like results for `O=C(O)CCCc1c[nH]c2ccccc12` [IBA, Indole-3-butyric acid] were, in that order, 10.4 ± 1.25 µM and 32.7 ± 0.88 µM.
With `O=C(O)CCc1c[nH]c2ccccc12` [IPA, Indole-3-propionic acid], the results for the Kd in assay [2] and in assay [1] were 7.49 ± 0.91 µM and 33.4 ± 1.16 µM, respectively.
`N[C@@H](Cc1c[nH]c2ccccc12)C(=O)O` [TRP, Tryptophan] had an equilibrium dissociation constant (Kd) in assay [1] of 40.3 ± 2.35 µM.
